Measured values taken from US4472400A, “Triazoloquinazolones having antihistaminic and bronchospasmolytic activity” (Roussel Uclaf, priority 1981, dated 1984).
Like-named read-outs stand apart in the source and are kept apart here.

Columns and labels:
[1] = system: histamine-induced bronchoconstriction; assay: Effects on histamine-induced bronchoconstriction in anaesthetised guinea pigs (KRG); format: in vivo, guinea pig (male Dunkin Hartley); conditions: Cavia porcellus, iv, read-out: KRG ED50 (effective dose required to reduce the histamine-induced constriction in lung air volume by 50%)
Method: (A) Effects on histamine-induced bronchoconstriction in anaesthetised guinea pigs (KRG)
Male Dunkin Hartley guinea-pigs weighing 350-650 grams were anaesthetised with urethane (25% w/v solution in distilled water at 7.0 ml/kg i.p). […] The animals were ventilated with a ventilatory pump, stroke volume of 8 ml and frequency of 52 to maintain a lung inflation pressure of 10 cm of H2 O. Blood pressure was measured via a cannula in the right carotid artery connected to a Statham blood pressure transducer and a Devices M2 recorder. The test compounds were administered via the cannulated left jugular vein and washed in with 0.1 ml of 0.9% w/w NaCl in distilled water. The test product was administered immediately before the histamine which was used as the agonist.
Respiratory changes were recorded via a differential transducer connected to an SE 905 transducer/converter which in turn was connected to a Devices M2 recorder.

[2] = system: histamine induced resistance change; assay: Measurement of Pulmonary Compliance and Resistance (RMG), histamine induced resistance change; format: in vivo, guinea pig (male Dunkin Hartley); conditions: Cavia porcellus, iv; anaesthetised guinea-pigs (Hypnorm/Valium), gallamine pre-treated; compound via right jugular vein; forced oscillation; read-out: RMG ED50 (effective dose required to reduce the histamine induced resistance change by 50%)
Method: (B) Measurement of Pulmonary Compliance and Resistance (RMG)
Male Dunkin Hartley guinea-pigs weighing between 400 and 650 g were anaesthetised with a combination of Hypnorm (1 ml/kg i.m.) and Valium (5 mg/kg i.p.). The trachea was cannulated and cannulae were inserted into the right jugular vein for the administration of compounds and left carotid artery for blood pressure measurement.
The animals were ventilated at a tidal volume of 6-8 ml and 10-12 cmH2 0 distension pressure was obtained. The respiratory rate was adjusted to 40-50/min. The animals were pre-treated with gallamine triethiodide (4 mg/kg i.v.) to maintain paralysis of respiratory muscles. Oxygen enrichment was applied to the inspiratory limb of the ventilator.
Respiratory resistance was measured by forced oscillation (Clay and Hughes 1980). Sinusodal wave forms of pressure were divided by flow at constant lung volumes to detect resistance changes. Sine wave production was achieved by a loudspeaker driven at 6-7 Hz through a pressure transducer, pneumotachograph and differential pressure transducer to detect pressure and flow contributions of the wave form. […] Drugs and analysis of activity were as described for the Konzett Rossler technique. Ref. Clay, T. P. and Hughes, J. M. B. (1980) J. Physiol. 308 427-437. The results given in Table V show the effective dose of each of the test compounds required to reduce the histamine induced resistance change by 50%.

[3] = anaesthetised guinea-pigs (urethane), test compound i.v. (jugular vein) immediately before histamine

`CCCCNCc1nnc2n(CCC)c(=O)c3ccccc3n12` [Example 12] showed an ED50 [1, 3] of 1.3 mg/kg.

`CCN(CC)Cc1nnc2n(CC)c(=O)c3ccccc3n12` [Example 30] was tested, and the ED50 [2] was 1 mg/kg.

`CCOC(=O)N1CCN(Cc2nnc3n(C)c(=O)c4ccccc4n23)CC1` [Example 25] showed an ED50 [1, 3] of 5 mg/kg and an ED50 [2] of 3.5 mg/kg.

For `CCCCN(CCCC)Cc1nnc2n(CCC)c(=O)c3ccccc3n12` [Example 14], the ED50 [1, 3] was 2.9 mg/kg.

`CC(C)n1c(=O)c2ccccc2n2c(CN3CCCCCC3)nnc12` [Example 20] was tested, and the ED50 [1, 3] was 0.8 mg/kg.

For `CCCn1c(=O)c2ccccc2n2c(CNC3CCCCC3)nnc12` [Example 11], the ED50 [1, 3] was 1.8 mg/kg.

`Cn1c(=O)c2ccccc2n2c(CN3CCCCC3)nnc12` [Example 23] was tested, and the ED50 [1, 3] was greater than 1 mg/kg and the ED50 [2] was 1 mg/kg.

Work on `C=CCn1c(=O)c2ccccc2n2c(CN3CCCCC3)nnc12` [Example 33, 4-allyl-1-piperidinomethyl[1,2,4]triazolo[4,3-a]quinazolin-5(4H)-one] yielded an ED50 [1, 3] of 0.31 mg/kg.

For `CCCn1c(=O)c2ccccc2n2c(CN3CC(C)CC(C)C3)nnc12` (centres unmarked) [Example 8], the ED50 [1, 3] was 1 mg/kg.

Compound `CCCn1c(=O)c2ccccc2n2c(CN3CCCC3)nnc12` [Example 4] has an ED50 [1, 3] of 2 mg/kg.

`CCCn1c(=O)c2ccccc2n2c(CN3CCN(C)CC3)nnc12` [Example 3] gave an ED50 [1, 3] of 5.28 mg/kg.

`CCCNCc1nnc2n(CCC)c(=O)c3ccccc3n12` [Example 10] was tested, and the ED50 [1, 3] was 1.97 mg/kg.

`Cn1c(=O)c2ccccc2n2c(CN3CCOCC3)nnc12` [Example 24] gave an ED50 [1, 3] of 2.76 mg/kg and an ED50 [2] of 1.8 mg/kg.

`CCCn1c(=O)c2ccccc2n2c(CN(CC)CC)nnc12` [Example 2] gave an ED50 [2] of 0.5 mg/kg.

In the case of `CCCn1c(=O)c2ccccc2n2c(CN3CCN(c4ccccc4)CC3)nnc12` [Example 6], the ED50 [1, 3] is reported as 5 mg/kg.

`CCCCn1c(=O)c2ccccc2n2c(CN3CCCCCC3)nnc12` [Example 22, 1-(2,3,4,5,6,7,-hexahydroazepino)methyl-4-n-butyl[1,2,4]triazolo[4,3-a] quinazolin-5(4H)-one] gave an ED50 [1, 3] of 0.84 mg/kg.

Compound `CCCCn1c(=O)c2ccccc2n2c(CN3CCCCC3)nnc12` [Example 21, 1-piperidinomethyl-4-n-butyl[1,2,4]triazolo[4,3-a]quinazolin-5(4H)-one] has an ED50 [1, 3] of 0.11 mg/kg and an ED50 [2] of 0.15 mg/kg.

Work on `CCCn1c(=O)c2ccccc2n2c(CN3CCCCCC3)nnc12` [Example 5] yielded an ED50 [1, 3] of 0.096 mg/kg and an ED50 [2] of 0.3 mg/kg.

For `CCCn1c(=O)c2ccccc2n2c(CN3CCCCC3)nnc12.Cl.O` [Example 1, 1-Piperidinomethyl-4-n-propyl[1,2,4]triazolo[4,3-a]quinazolin-5(4H)-one hydrochloride, monohydrate], the ED50 [1, 3] was 0.12 mg/kg.

Work on `CC(C)n1c(=O)c2ccccc2n2c(CN3CCCCC3)nnc12` [Example 19] yielded an ED50 [1, 3] of 0.185 mg/kg.

Compound `O=c1c2ccccc2n2c(CN3CCCCC3)nnc2n1-c1ccccc1` [Example 31] has an ED50 [1, 3] of 0.58 mg/kg.

For `CN1CCN(Cc2nnc3n(C)c(=O)c4ccccc4n23)CC1` [Example 27], the ED50 [2] was 0.8 mg/kg.

Compound `CCn1c(=O)c2ccccc2n2c(CN3CCCCC3)nnc12` [Example 29, 1-piperidinomethyl-4-ethyl[1,2,4]triazolo[4,3-a]quinazolin-5 (4H)-one] has an ED50 [1, 3] of 0.35 mg/kg and an ED50 [2] of 0.5 mg/kg.

`CCCn1c(=O)c2ccccc2n2c(CN3CC4CCC(CC4)C3)nnc12` [Example 7] gave an ED50 [1] of 0.33 mg/kg.

Work on `CCN(CC)Cc1nnc2n(C)c(=O)c3ccccc3n12` [Example 26] yielded an ED50 [1, 3] of 3.75 mg/kg and an ED50 [2] of 1 mg/kg.
